Laboratory results reported in patent US11766434B2, “Pyrimidinone derivatives as CDC7 inhibitors” (Cancer Research Technology Limited, priority 2016, dated 2023).

Target: Cdc7/ASK (Homo sapiens, UniProt O00311)
Experiment: Cdc7 biochemical assay Method 1: 384 well ELISA, MCM2 whole protein substrate, Phospho MCM2 (S53) antibody
Set-up: purchased
Conditions: ATP 2 μM, 90 minutes, read-out: Biochemical method 1 (pIC50) (converted)
Method: This protocol describes a method for assaying Cdc7/ASK for activity. The assay is a 384 well ELISA assay, utilising a whole protein substrate (MCM2) and an antibody against Phospho MCM2 (S53). This site is thought to be specific to Cdc7/ASK phosphorylation and the assay has been validated using knockout mutants.
• TBS: 25 mM Tris pH 7.2, 150 mM NaCl. (Dilute 10× stock by 1:10). • Wash Buffer: TBS+0.05% Tween 20. (Add 100 mL 1 M Tris pH 7.2, 120 mL 5 M NaCl and 2 mL 100% Tween 20 per 4 L). • Kinase Reaction Buffer: 50 mM Tris-HCl pH 8.5, 10 mM MgCl2, 1 mM DTT. (Dilute 10× stock by 1:10 and add 100 μL 1M DTT per 100 mL prior to assay). • Diethanolamine Buffer: 1 M diethanolamine pH 9.8, 0.5 mM MgCl2. • Stop Solution: 1 M NaOH. • MCM2 was expressed and purified in-house and used in the assay at a final assay concentration of 436 ng/well. • Cdc7/ASK is purchased from commercial suppliers and used in the assay at a final assay concentration of 37.97 ng/well or 20.63 nM. • ATP used as a final assay concentration of 2 μM. • Primary Antibody: Rabbit anti-Phospho MCM2 (S53 Antibody (BL3353)), is purchased from commercial suppliers at 0.2 mg/mL and used at a final assay concentration by diluting 1:800 in TBS. • Secondary Antibody: Anti-Rabbit/AP Antibody is supplied is purchased from commercial suppliers at 1 mg/mL and used at a final assay concentration by diluting 1:2000 in TBS. • Development Reagent: Dissolve one 20 mg PNPP tablet (Sigma, product N2765, 20 mg per tablet) per 20 mL diethanolamine Buffer (or one 5 mg PNPP tablet per 5 mL diethanolamine buffer). Cover in foil and leave shaking on a roller shaker at room temperature for up to an hour to dissolve. Methods • 1. Add 20 μL 1× working stock of Substrate (MCM2) in TBS to all wells of a clear, 384 well, Nickel-chelate microplate to give a final concentration of 250 ng/well. Incubate at room temperature for at least 1 hour. Plates can be pre-coated for 1 hour and stored at 4° C. for up to 8 days. • 2. Wash with TBS+0.05% Tween 20 (80 μL x 3). • 3. Add 2 μL 10× test compounds, including the positive control, in 40% DMSO/water to ‘test’ wells. Add 2 μL 40% DMSO/water to ‘control’ and ‘blank’ wells. The final DMSO concentration will be 4%. • 4. Add 13 μL CDCl7/ASK Kinase (1.5× stock) in Kinase Reaction Buffer to ‘test’ and ‘control’ wells to give a final concentration of […]. Add 13 μL Kinase Reaction Buffer to ‘blank’ wells. • 5. Add 5 μL ATP (4× stock) in Kinase Reaction Buffer to all wells to give a final concentration of 2 μM. • 6. Incubate at room temperature for 90 minutes. • 7. Wash with TBS+0.05% Tween 20 (80 μL x 3). • 8. Add 20 μL 1× working solution of Primary Antibody in TBS to all wells. Incubate at room temperature for 30 minutes. • 9. Wash with TBS+0.05% Tween 20 (80 μL x 3). • 10. Add 20 μL 1× working solution of Secondary Antibody in TBS to all wells. Incubate at room temperature for 30 minutes. • 11. Wash with TBS+0.05% Tween 20 (80 μL x 3). • 12. Add 20 μL 1× Development Reagent to all wells. • 13. Incubate at room temperature for 2 hours. Stop the reaction by adding 20 μL Stop Solution to all wells and record Absorbance on a Pherastar plate reader.
Percentage inhibition values were calculated from absorbance values, using the no compound (DMSO) and no enzyme control values as 0% and 100% inhibition, respectively. IC50 determination was performed with ExcelFit software (IDBS) using curve fit 205. Z′ factors were determined for each plate tested and were all above 0.5.

Chain of Cdc7/ASK (O00311 whole entry): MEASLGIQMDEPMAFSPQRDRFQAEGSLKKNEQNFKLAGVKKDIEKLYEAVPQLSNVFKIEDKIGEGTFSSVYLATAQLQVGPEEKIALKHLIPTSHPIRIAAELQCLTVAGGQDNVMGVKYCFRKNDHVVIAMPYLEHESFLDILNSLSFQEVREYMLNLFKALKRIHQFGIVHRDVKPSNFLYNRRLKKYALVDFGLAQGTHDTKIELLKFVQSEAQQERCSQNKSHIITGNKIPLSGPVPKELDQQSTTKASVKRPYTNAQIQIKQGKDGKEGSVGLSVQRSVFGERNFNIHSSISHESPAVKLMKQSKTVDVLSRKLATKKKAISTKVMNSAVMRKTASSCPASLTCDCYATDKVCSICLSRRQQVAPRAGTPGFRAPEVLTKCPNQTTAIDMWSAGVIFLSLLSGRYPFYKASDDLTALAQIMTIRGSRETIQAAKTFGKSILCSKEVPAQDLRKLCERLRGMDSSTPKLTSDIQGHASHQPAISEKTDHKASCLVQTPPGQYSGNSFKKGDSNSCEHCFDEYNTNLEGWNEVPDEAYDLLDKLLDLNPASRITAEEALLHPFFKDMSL
Chain of Cdc7/ASK (Q9UBU7 whole entry partner): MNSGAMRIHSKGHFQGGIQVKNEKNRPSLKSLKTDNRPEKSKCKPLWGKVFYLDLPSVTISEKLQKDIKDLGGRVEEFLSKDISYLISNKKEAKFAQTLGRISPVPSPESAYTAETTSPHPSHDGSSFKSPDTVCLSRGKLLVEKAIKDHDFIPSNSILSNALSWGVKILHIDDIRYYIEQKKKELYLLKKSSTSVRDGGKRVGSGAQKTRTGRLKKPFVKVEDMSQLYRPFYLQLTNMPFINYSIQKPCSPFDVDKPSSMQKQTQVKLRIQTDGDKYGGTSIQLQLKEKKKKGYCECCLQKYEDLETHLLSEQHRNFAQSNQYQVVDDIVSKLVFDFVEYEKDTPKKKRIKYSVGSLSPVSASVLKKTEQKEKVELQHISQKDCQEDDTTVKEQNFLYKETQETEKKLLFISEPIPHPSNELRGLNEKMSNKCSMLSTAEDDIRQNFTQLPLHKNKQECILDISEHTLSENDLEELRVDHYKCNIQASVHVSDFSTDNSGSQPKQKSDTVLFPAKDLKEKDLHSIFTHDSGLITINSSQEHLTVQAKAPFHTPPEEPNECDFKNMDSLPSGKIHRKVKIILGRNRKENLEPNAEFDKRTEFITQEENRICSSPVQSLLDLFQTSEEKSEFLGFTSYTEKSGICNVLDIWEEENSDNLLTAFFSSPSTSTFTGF

IC50 | Compound
229 nM | Cc1ncsc1-c1nc(C2CCN(C(=O)OC(C)(C)C)CC2)c(Cl)c(=O)[nH]1 [Compound 1, tert-butyl 4-[5-chloro-2-(4-methylthiazol-5-yl)-6-oxo-1H-pyrimidin-4-yl]piperidine-1-carboxylate]
57.5 nM | Cc1ncsc1-c1nc(C2CCOCC2)c(Br)c(=O)[nH]1 [Compound 3, 5-bromo-2-(4-methylthiazol-5-yl)-4-tetrahydropyran-4-yl-1H-pyrimidin-6-one]
126 nM | Cc1nc(O)sc1-c1nc(C2CCOCC2)c(Cl)c(=O)[nH]1 [Compound 5, 5-chloro-2-(2-hydroxy-4-methyl-thiazol-5-yl)-4-tetrahydropyran-4-yl-1H-pyrimidin-6-one]
245 nM | Cc1ncsc1-c1nc(C2CCOCC2)c(I)c(=O)[nH]1 [Compound 7, 5-Iodo-2-(4-methylthiazol-5-yl)-4-tetrahydropyran-4-yl-1H-pyrimidin-6-one]
562 nM | O=c1[nH]c(-c2cncs2)nc(C2CCOCC2)c1Cl [Compound 9, 5-chloro-4-tetrahydropyran-4-yl-2-thiazol-5-yl-1H-pyrimidin-6-one]
93.3 nM | Cn1nccc1-c1nc(C2CCOCC2)c(Cl)c(=O)[nH]1 [Compound 10, 5-chloro-2-(2-methylpyrazol-3-yl)-4-tetrahydropyran-4-yl-1H-pyrimidin-6-one]
692 nM | Cc1nnsc1-c1nc(C2CCOCC2)c(Cl)c(=O)[nH]1 [Compound 11, 5-chloro-2-(4-methylthiadiazol-5-yl)-4-tetrahydropyran-4-yl-1H-pyrimidin-6-one]
60.3 nM | Cc1ncsc1-c1nc(C2CCOCC2)c(C#N)c(=O)[nH]1 [Compound 18, 2-(4-methylthiazol-5-yl)-6-oxo-4-tetrahydropyran-4-yl-1H-pyrimidine-5-carbonitrile]
40.7 nM | Cc1ncsc1-c1nc(C2CCN(C(=O)C3CC3(F)F)CC2)c(Cl)c(=O)[nH]1 (stereo not shown) [Compound 19, 5-chloro-4-[1-(2,2-difluorocyclopropanecarbonyl)-4-piperidyl]-2-(4-methylthiazol-5-yl)-1H-pyrimidin-6-one]
4.47 nM | Cc1ncsc1C(=O)N1CCC(c2nc(-c3scnc3C)[nH]c(=O)c2Cl)CC1 [Compound 20, 5-chloro-4-[1-(4-methylthiazole-5-carbonyl)-4-piperidyl]-2-(4-methylthiazol-5-yl)-1H-pyrimidin-6-one]
3.98 nM | Cc1ncsc1-c1nc(C2CCN(C(=O)c3cscn3)CC2)c(Cl)c(=O)[nH]1 [Compound 21, 5-chloro-2-(4-methylthiazol-5-yl)-4-[1-(thiazole-4-carbonyl)-4-piperidyl]-1H-pyrimidin-6-one]
4.37 nM | Cc1cc(C(=O)N2CCC(c3nc(-c4scnc4C)[nH]c(=O)c3Cl)CC2)[nH]n1 [Compound 22, 5-chloro-4-[1-(3-methyl-1H-pyrazole-5-carbonyl)-4-piperidyl]-2-(4-methylthiazol-5-yl)-1H-pyrimidin-6-one]
3.98 nM | Cc1cc(C(=O)N2CCC(c3nc(-c4scnc4C)[nH]c(=O)c3Cl)CC2)n(C)n1 [Compound 24, 5-chloro-4-[1-(2,5-dimethylpyrazole-3-carbonyl)-4-piperidyl]-2-(4-methylthiazol-5-yl)-1H-pyrimidin-6-one]
1.66 nM | Cc1ncsc1-c1nc(C2CCN(C(=O)c3ccnnc3)CC2)c(Cl)c(=O)[nH]1 [Compound 26, 5-chloro-2-(4-methylthiazol-5-yl)-4-[1-(pyridazine-4-carbonyl)-4-piperidyl]-1H-pyrimidin-6-one]
56.2 nM | Cc1ncsc1-c1nc(C2CCN(CC(C)C)CC2)c(Cl)c(=O)[nH]1 [Compound 27, 5-chloro-4-(1-isobutyl-4-piperidyl)-2-(4-methylthiazol-5-yl)-1H-pyrimidin-6-one]
158 nM | Cc1ncsc1-c1nc(N2CCCNC(=O)C2)c(Cl)c(=O)[nH]1 [Compound 34, 4-[5-chloro-2-(4-methylthiazol-5-yl)-6-oxo-1H-pyrimidin-4-yl]-1,4-diazepan-2-one]
